Test: Solubility of targeting ligand phosphoramidite compounds in oligonucleotide synthesis solvent (Example 5)
Type: physicochemical
Conditions: for solubility relative to Structure 103d: solvents for oligonucleotide synthesis
Excerpt: The compositions were solubilized in dichloromethane (DCM) and dried over sieves.

With `CC(=O)NC1C(OCCOCCNC(=O)CCC(NC(=O)CCC(NC(=O)CCOCCOCCOCCOCCOCCOCCOP(OCCC#N)N(C(C)C)C(C)C)C(=O)NCCOCCOC2OC(COC(C)=O)C(OC(C)=O)C(OC(C)=O)C2NC(C)=O)C(=O)NCCOCCOC2OC(COC(C)=O)C(OC(C)=O)C(OC(C)=O)C2NC(C)=O)OC(COC(C)=O)C(OC(C)=O)C1OC(C)=O` (stereo not drawn) [Structure 101d, Tri-NAG-bis-Glu-NH-PEG6 phosphoramidite] the “solubility relative to Structure 103d” value was “greater solubility”.

In the case of `CC(=O)NC1C(OCCOCCNC(=O)CCC(NC(=O)CCC(NC(=O)CCOCCOCCOCCOCCOP(OCCC#N)C(C(C)C)C(C)C)C(=O)NCCOCCOC2OC(COC(C)=O)C(OC(C)=O)C(OC(C)=O)C2NC(C)=O)C(=O)NCCOCCOC2OC(COC(C)=O)C(OC(C)=O)C(OC(C)=O)C2NC(C)=O)OC(COC(C)=O)C(OC(C)=O)C1OC(C)=O` (stereo not drawn) [Structure 103d, Tri-NAG-bis-Glu-NH-PEG4 phosphoramidite], the “dissolution under standard conditions” value (standard concentrations and solvent conditions typical for oligonucleotide synthesis) is reported as “difficult to dissolve”.

With `CC(=O)NC1C(OCCOCCNC(=O)CCC(NC(=O)CCC(NC(=O)CCOCCOCCOCCOCCOCCOCCOCCOCCOP(OCCC#N)N(C(C)C)C(C)C)C(=O)NCCOCCOC2OC(COC(C)=O)C(OC(C)=O)C(OC(C)=O)C2NC(C)=O)C(=O)NCCOCCOC2OC(COC(C)=O)C(OC(C)=O)C(OC(C)=O)C2NC(C)=O)OC(COC(C)=O)C(OC(C)=O)C1OC(C)=O` (stereo not drawn) [Structure 102d, Tri-NAG-bis-Glu-NH-PEG8 Phosphoramidite] the “solubility relative to Structure 103d” value was “greater solubility”.
